Experimental findings from US20080248953A1, “Use of Bacteriocins For Promoting Plant Growth and Disease Resistance” (MCGILL UNIVERSITY, priority 2005, published 2008) are described below.

Holding throughout (type): in vivo, Glycine max
The test system of one test is catalase (CAT). The experiment in a line: Catalase activity staining after PAGE. To be noted: soybean leaves. On the procedure:
(§1) Treatments of chitin hexamer and thuricin 17 were applied when the seedling reached the first trifoliate stage (˜2 weeks old). Chitin hexamer and thuricin 17 treatments were applied through cut stems, as described by Orozco-Cardenas and Ryan (1999). The plants were excised at the base of the stem with a sharp scalpel and promptly placed in 2 mL Eppendorff™ tubes containing 0.5 mL of 100 μmol L^−1 chitin hexamer [(GlcNAc)6], 0.5 mL of […] thuricin 17, and chitin hexamer+thuricin 17 mixed (1:1) solution in phosphate buffer (15 mM sodium phosphate, pH 6.5). The control plants were treated with phosphate buffer solution alone. Once all the solution was taken up by the plants (4-6 h), they were immediately transferred to glass test tubes containing 20 mL distilled water. The plants were kept under constant white light (85 μmol·m^−2·s^−1). Leaves were collected at 12, 24, 36, 48, 60 and 72 h after elicitor treatment, weighed, placed in plastic bags and stored immediately at −80° C.
For the catalase activity (CAT) staining after 12.5% PAGE, the gel was incubated with 3.2 mM H2O2 for 20 min, and a treatment with a solution containing 1% FeCl3 and 1% K3Fe(CN)6 for 10 min, as described by Racchi et al (2001).

For another test, the system named is peroxidase (POD). The test can be described thus: POD activity in soybean leaves. To be noted: 72 h after treatment. The method, then: (§2) Soybean (Glycine max L. Merr. cv. OAC Bayfield) seeds were surface sterilized in 10% bleach, rinsed several times with distilled water and then germinated and grown in Vermiculite™ (Holiday, Montreal) in a growth chamber under a 16 h/8 h (day/night) regime (natural light supplemented with high pressure sodium lamps to reach the appropriate daylight), at 25±1° C., until they reached vegetative cotyledon (VC) stage (Fehr and Caviness, 1977).
(§3) Treatments of chitin hexamer and thuricin 17 were applied when the seedling reached the first trifoliate stage (˜2 weeks old). Chitin hexamer and thuricin 17 treatments were applied through cut stems, as described by Orozco-Cardenas and Ryan (1999). The plants were excised at the base of the stem with a sharp scalpel and promptly placed in 2 mL Eppendorff™ tubes containing 0.5 mL of 100 μmol L^−1 chitin hexamer [(GlcNAc)6], 0.5 mL of […] thuricin 17, and chitin hexamer+thuricin 17 mixed (1:1) solution in phosphate buffer (15 mM sodium phosphate, pH 6.5). […]
The activity of peroxidase (POD) was assessed using the method of Chance and Maehly (1955). […] The reaction was started with addition of 20 μL of 40 mM H2O2 and the change in the absorbance at 470 nm was recorded for 1 min. The activity of peroxidase was calculated using an extinction coefficient for the tetraguaiacol of 26.6 mM^−1 cm^−1 at 470 nm. […]

In test [1] the test system is phenylalanine ammonia lyase (PAL). The experiment in a line: PAL activity in soybean leaves after treatment. The method, then: as §2
as §1, with “Leaves were collected at 12, 24, 36, 48, 60 and 72 h after elicitor treatment, weighed, placed in plastic bags and stored immediately at −80° C.” left out
(§4) Leaf samples (300 mg fresh weight) were extracted in 4 mL of buffer (50 mM Tris pH 8.5, 14.4 mmol L^−1 2-mercaptoethanol, 1% w/v insoluble polyvinyl-polypyrrorolidone) and centrifuged at 6,000 g for 10 min at 4° C. The total protein concentration in soluble enzyme extracts was determined using the Bradford (1976) assay.
(§5) The method of Beaudoin-Eagan and Thorpe (1985) was used to estimate phenylalanine ammonia lyase (PAL) and tyrosine ammonia lyase (TAL) activities. […] The amounts of trans-cinnamic and p-coumaric acids formed were determined by measuring absorbance at 290 and 330 nm, respectively, against an identical mixture in which D-phenylalanine was substituted for L-phenylalanine and D-tyrosine for L-tyrosine. […]

Test [2] relates to tyrosine ammonia lyase (TAL). The experiment in a line: TAL activity in soybean leaves after treatment. The method, then: as §2
as §1, with “Leaves were collected at 12, 24, 36, 48, 60 and 72 h after elicitor treatment, weighed, placed in plastic bags and stored immediately at −80° C.” left out
as §4, §5

In another test the test system is total phenolic compounds. The test can be described thus: Total phenolics in soybean leaves (Folin-Ciocalteu). The method, then: as §2
as §3, with “6.5). The control plants were treated with phosphate buffer solution alone.” for “6.5).”
Total phenolic content was determined by the Folin-Ciocalteu method (Singleton and Rossi, 1965). […] After 3 min, 0.475 mL of 1 mol L^−1 Na2CO3 was added and after 1 h absorbance was measured. […] The total phenolic content was expressed as gallic acid equivalents (GAE) in mg g^−1 fresh weight (FW).

The subject of test [3] is superoxide dismutase (SOD). The experiment in a line: SOD activity in soybean leaves. On the procedure:
as §2
as §3, with “6.5). The control plants were treated with phosphate buffer solution alone.” for “6.5).”
The activity of superoxide dismutase (SOD) was determined by measuring its ability to inhibit the photoreduction of nitroblue tetrazolium (NBT) following the method of Giannopolitis and Ries (1977). […] Absorbance was recorded at 560 nm. […]

As for `CC(=O)N[C@H]1[C@H](O[C@H]2[C@H](O)[C@@H](NC(C)=O)[C@H](O[C@H]3[C@H](O)[C@@H](NC(C)=O)C(O)O[C@@H]3CO)O[C@@H]2CO)O[C@H](CO)[C@@H](O[C@@H]2O[C@H](CO)[C@@H](O[C@@H]3O[C@H](CO)[C@@H](O[C@@H]4O[C@H](CO)[C@@H](O)[C@H](O)[C@H]4NC(C)=O)[C@H](O)[C@H]3NC(C)=O)[C@H](O)[C@H]2NC(C)=O)[C@@H]1O` (stereo partly drawn) [chitin hexamer, chitin hexamer [(GlcNAc)6]], the “induction of CAT activity” value in the test with catalase (CAT) is listed as “elicited increases”. In addition, the “POD activity increase compared with control” value with peroxidase (POD) was determined as 40.3%. Besides, the “PAL activity time course” value in test [1] (12 to 72 h after treatment) is reported as “increased continuously”. Further, the “PAL activity increase compared with control” value in test [1] (60 h after treatment) was determined as 8.4%. Also, the “PAL activity greater than the control” value in test [1] (72 h after treatment) was 18.1%. For the same molecule, in test [2] (12 to 72 h after treatment), the “TAL activity time course” value is on record as “increased continuously”. The “TAL activity increase compared with the control” value in test [2] (48 h after treatment) came to 18.8%; in test [2] (72 h after treatment) it was 23.8%. In addition, the “total phenolics increase compared with the control” value is recorded as 15.3% in the test on total phenolic compounds (36 h after treatment) and 1.4% in the test with total phenolic compounds (72 h after treatment). Moreover, the “induction of SOD activity” value in test [3] is reported as “not induced”. Also, the “SOD activity increase compared with control” value in test [3] (48 h after treatment) was found to be 24.9%.
